The values that follow come from patent US9399646B2 (Genentech, Inc., priority 2010, dated 2016).

For one experiment, the system named is MCF-7 cells. The experiment can be described thus: Breast cancer cell viability assay (CellTiter-Glo, 5 days). It is filed as cell-based. As to conditions: 5 days' compound exposure; for IC50: Homo sapiens, MCF7, 120 h. The method, boiled down: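 Eleven-point semilog compound series, final 0.3-0.000003 μM, added to overnight-adhered MCF-7 cells (320/well; RPMI, 10% FBS, 20 mM HEPES) for 5 days. Viability read by CellTiter-Glo luminescence, background from medium without cells subtracted, expressed relative to untreated cells.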
A general note: ATP-based viability assays read luminescence as a measure of living cells.

The next experiment addresses T1, ER-α in MCF-7 cells (Homo sapiens, UniProt P03372).
T1 sequence (P03372 1-595): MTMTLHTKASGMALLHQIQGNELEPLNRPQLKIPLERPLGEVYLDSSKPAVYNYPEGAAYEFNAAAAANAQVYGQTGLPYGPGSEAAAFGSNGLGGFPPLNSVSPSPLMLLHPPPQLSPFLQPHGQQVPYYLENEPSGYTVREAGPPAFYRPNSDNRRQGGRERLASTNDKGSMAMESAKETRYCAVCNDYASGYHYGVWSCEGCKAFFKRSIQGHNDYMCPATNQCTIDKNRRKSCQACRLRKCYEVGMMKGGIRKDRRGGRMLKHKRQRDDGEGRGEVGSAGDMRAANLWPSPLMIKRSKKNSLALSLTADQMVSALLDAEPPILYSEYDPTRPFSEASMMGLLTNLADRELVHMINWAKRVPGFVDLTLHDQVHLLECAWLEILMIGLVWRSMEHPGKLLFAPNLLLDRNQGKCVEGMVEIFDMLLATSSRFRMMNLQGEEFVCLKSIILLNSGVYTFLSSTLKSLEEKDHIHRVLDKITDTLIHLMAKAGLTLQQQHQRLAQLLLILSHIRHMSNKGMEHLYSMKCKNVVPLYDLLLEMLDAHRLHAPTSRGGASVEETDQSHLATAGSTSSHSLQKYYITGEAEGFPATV
The experiment can be described thus: Breast cancer cell ER-α in cell western assay (SP1). In kind it is cell-based. Also noted: endogenous in cells; host or cells: MCF-7. Particulars: 4 or 24 hr post compound addition; for Emax: MCF7, SP1 antibody, read-out: ER-α In Cell Western Assay (SP1) Max Response; for DC50: SP1 antibody, read-out: ER-α In Cell Western Assay (SP1) IC50. The method, boiled down: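 ER-α protein levels were measured in MCF-7 cells after 4 or 24 hr compound exposure (final 0.3–0.000003 μM) in RPMI containing 10% charcoal-stripped FBS.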

As a reminder, the IC50 is the point on the concentration scale where inhibition reaches its midpoint. Lower therefore signals greater potency in that assay. `CC/C(=C(/c1ccc(/C=C/C(=O)O)cc1)c1ccc2[nH]ncc2c1)c1ccc(Nc2ccccc2)cc1` [Compound 397, (E)-3-(4-((E)-1-(1H-Indazol-5-yl)-2-(4-(phenylamino)phenyl)but-1-en-1-yl)phenyl)acrylic acid]: in the experiment on MCF-7 cells, the “MCF7 Viability Assay Max Response” value is reported as “++ (++ = a single % value ≧ 40%)” and the IC50 is no more than 100 nM. Further, on ER-α in MCF-7 cells, the Emax is no less than 40% and the DC50 was no more than 100 nM.

Turning to `CC/C(=C(/c1ccc(/C=C/c2nn[nH]n2)cc1)c1ccc2scnc2c1)c1ccccc1` [Compound 444, 5-((E)-1-(4-((E)-2-(2H-Tetrazol-5-yl)vinyl)phenyl)-2-phenylbut-1-en-1-yl)benzo[d]thiazole], in the experiment on MCF-7 cells, the “MCF7 Viability Assay Max Response” value is recorded as “++ (++ = a single % value ≧ 40%)” and the IC50 is greater than 100 nM. For the same compound, on ER-α in MCF-7 cells, the Emax was no less than 40% and the DC50 is no more than 100 nM.

In the case of `CC/C(=C(/c1ccc(/C=C/C(=O)O)cc1)c1ccc2[nH]ncc2c1)c1cccs1` [Compound 23, (E)-3-(4-((E)-1-(1H-Indazol-5-yl)-2-(thiophen-2-yl)but-1-en-1-yl)phenyl)acrylic acid], in the experiment with MCF-7 cells, the “MCF7 Viability Assay Max Response” value is listed as “++ (++ = a single % value ≧ 40%)” and the IC50 was no more than 100 nM. Besides, on ER-α in MCF-7 cells, the Emax was no less than 40% and the DC50 was no more than 100 nM.

In the case of `CC/C(=C(/c1ccc(/C=C/C(=O)O)cc1)c1ccc2[nH]c(=O)ccc2c1)c1ccccc1` [Compound 105, (E)-3-(4-((E)-1-(2-Oxo-1,2-dihydroquinolin-6-yl)-2-phenylbut-1-en-1-yl)phenyl)acrylic acid], in the experiment on MCF-7 cells, the “MCF7 Viability Assay Max Response” value is recorded as “++ (++ = a single % value ≧ 40%)” and the IC50 is greater than 100 nM. In addition, at ER-α in MCF-7 cells, the Emax is no less than 40% and the DC50 was greater than 100 nM.

As for `CC/C(=C(/c1ccc(/C=C/C(=O)O)cc1)c1ccc2nncn2c1)c1ccccc1` [Compound 127, (E)-3-(4-((E)-1-([1,2,4]Triazolo[4,3-a]pyridin-6-yl)-2-phenylbut-1-en-1-yl)phenyl)acrylic acid], in the experiment with MCF-7 cells, the “MCF7 Viability Assay Max Response” value was “+ (+ = a single % value < 40%)” and the IC50 was greater than 100 nM. Moreover, on ER-α in MCF-7 cells, the Emax is less than 40% and the DC50 was greater than 100 nM.

Regarding `CC/C(=C(/c1ccc(/C=C/C(=O)O)cc1)c1ccc2[nH]ncc2c1)c1ccc(C)s1` [Compound 227, (E)-3-(4-((E)-1-(1H-Indazol-5-yl)-2-(5-methylthiophen-2-yl)but-1-en-1-yl)phenyl)acrylic acid], in the experiment on MCF-7 cells, the “MCF7 Viability Assay Max Response” value is listed as “++ (++ = a single % value ≧ 40%)” and the IC50 was no more than 100 nM. Also, at ER-α in MCF-7 cells, the Emax was no less than 40% and the DC50 was no more than 100 nM.

Turning to `CC/C(=C(/c1ccc(/C=C/C(=O)O)cc1)c1cnc2[nH]ccc2c1)c1ccccc1` [Compound 68, (E)-3-(4-((E)-2-Phenyl-1-(1H-pyrrolo[2,3-b]pyridin-5-yl)but-1-en-1-yl)phenyl)acrylic acid], in the experiment with MCF-7 cells, the “MCF7 Viability Assay Max Response” value is “++ (++ = a single % value ≧ 40%)” and the concentration for half-maximal inhibition (IC50) was greater than 100 nM. Further, on ER-α in MCF-7 cells, the Emax was no less than 40% and the DC50 is greater than 100 nM.

Take `CC/C(=C(/c1ccc(/C=C/C(=O)O)cc1)c1cccc2[nH]ncc12)c1ccccc1F` [Compound 31, (E)-3-(4-((E)-2-(2-Fluorophenyl)-1-(1H-indazol-4-yl)but-1-en-1-yl)phenyl)acrylic acid]: in the experiment with MCF-7 cells, the “MCF7 Viability Assay Max Response” value was “++ (++ = a single % value ≧ 40%)” and the IC50 was no more than 100 nM. Also, on ER-α in MCF-7 cells, the Emax is no less than 40% and the DC50 was no more than 100 nM.

With `CCCS(=O)(=O)NC(=O)/C=C/c1ccc(/C(=C(/CC)c2ccc(F)cc2Cl)c2ccc3[nH]ncc3c2)cc1` [Compound 409, (E)-3-(4-((E)-2-(2-Chloro-4-fluorophenyl)-1-(1H-indazol-5-yl)but-1-en-1-yl)phenyl)-N-(propylsulfonyl)acrylamide], in the experiment with MCF-7 cells, the “MCF7 Viability Assay Max Response” value is “++ (++ = a single % value ≧ 40%)” and the IC50 is no more than 100 nM. On ER-α in MCF-7 cells, the Emax was no less than 40% and the DC50 is no more than 100 nM.

For the compound `CC/C(=C(/c1ccc(/C=C/C(=O)O)cc1)c1ccc2[nH]ncc2c1)c1ccc([S+]([O-])C(F)(F)F)cc1` (stereo not shown) [Compound 302, (E)-3-(4-((E)-1-(1H-Indazol-5-yl)-2-(4-((trifluoromethyl)sulfinyl)phenyl)but-1-en-1-yl)phenyl)acrylic acid], in the experiment with MCF-7 cells, the “MCF7 Viability Assay Max Response” value is listed as “++ (++ = a single % value ≧ 40%)” and the IC50 was no more than 100 nM. Further, at ER-α in MCF-7 cells, the Emax was no less than 40% and the DC50 was no more than 100 nM.

Take `CC/C(=C(/c1ccc(/C=C/S(N)(=O)=O)cc1)c1ccc2[nH]ncc2c1)c1ccccc1` [Compound 452, (E)-2-(4-((E)-1-(1H-Indazol-5-yl)-2-phenylbut-1-en-1-yl)phenyl)ethenesulfonamide]: in the experiment with MCF-7 cells, the “MCF7 Viability Assay Max Response” value is listed as “++ (++ = a single % value ≧ 40%)” and the IC50 is no more than 100 nM. In addition, on ER-α in MCF-7 cells, the Emax is no less than 40% and the DC50 is no more than 100 nM.

In the case of `CC/C(=C(/c1ccc(/C=C/C(=O)Nc2nccs2)cc1)c1ccc2[nH]ncc2c1)c1ccccc1` [Compound 430, (E)-3-(4-((E)-1-(1H-Indazol-5-yl)-2-phenylbut-1-en-1-yl)phenyl)-N-(thiazol-2-yl)acrylamide], in the experiment on MCF-7 cells, the “MCF7 Viability Assay Max Response” value is given as “++ (++ = a single % value ≧ 40%)” and the IC50 is no more than 100 nM. For the same compound, at ER-α in MCF-7 cells, the Emax was no less than 40% and the DC50 was no more than 100 nM.

As for `CC/C(=C(/c1ccc(/C=C/C(=O)O)cc1)c1ccc2[nH]ncc2c1)c1ccc(Oc2ccccn2)cc1` [Compound 316, (E)-3-(4-((E)-1-(1H-Indazol-5-yl)-2-(4-(pyridin-2-yloxy)phenyl)but-1-en-1-yl)phenyl)acrylic acid], in the experiment with MCF-7 cells, the “MCF7 Viability Assay Max Response” value is given as “++ (++ = a single % value ≧ 40%)” and the IC50 is no more than 100 nM. At ER-α in MCF-7 cells, the Emax is no less than 40% and the DC50 was no more than 100 nM.

As to `CC/C(=C(/c1ccc(OC[C@H](C)N2CC[C@@H](C)C2)cc1)c1ccc2[nH]ncc2c1)c1ccncc1Cl` [Compound 331, 5-((E)-2-(3-Chloropyridin-4-yl)-1-(4-((S)-2-((R)-3-methylpyrrolidin-1-yl)propoxy)phenyl)but-1-en-1-yl)-1H-indazole], in the experiment on MCF-7 cells, the “MCF7 Viability Assay Max Response” value is given as “++ (++ = a single % value ≧ 40%)” and the IC50 was no more than 100 nM. For the same compound, at ER-α in MCF-7 cells, the Emax was no less than 40% and the DC50 is no more than 100 nM.

For `CC/C(=C(/c1ccc(/C=C/C(=O)O)cc1)c1ccc2nonc2c1)c1ccccc1` [Compound 137, (E)-3-(4-((E)-1-(Benzo[c][1,2,5]oxadiazol-5-yl)-2-phenylbut-1-en-1-yl)phenyl)acrylic acid], in the experiment with MCF-7 cells, the “MCF7 Viability Assay Max Response” value is recorded as “+ (+ = a single % value < 40%)” and the IC50 was greater than 100 nM. Also, at ER-α in MCF-7 cells, the Emax is no less than 40% and the DC50 is greater than 100 nM.

As for `CC/C(=C(/c1ccc(/C=C/C(=O)O)cc1)c1cccc2[nH]ncc12)c1ccc(F)cc1Cl` [Compound 30, (E)-3-(4-((E)-2-(2-Chloro-4-fluorophenyl)-1-(1H-indazol-4-yl)but-1-en-1-yl)phenyl)acrylic acid], in the experiment on MCF-7 cells, the “MCF7 Viability Assay Max Response” value is “++ (++ = a single % value ≧ 40%)” and the IC50 is no more than 100 nM. For the same compound, at ER-α in MCF-7 cells, the Emax was no less than 40% and the DC50 was no more than 100 nM.
